# In US12564638B2 (SHANGHAITECH UNIVERSITY, priority 2019, dated 2026):
# Read-outs that look alike come from different tables or passages of the source.
# What was measured:
# [1] = test system: PC9 cells (EGFR Exon 19 del, non-small cell lung cancer cells); test: Cell viability assay (WST/CCK8), PC9 cells; type: cell-based; details: Homo sapiens, PC-9, PC9 (Exon19 Del), 72 hours, read-out: IC50 (half inhibitory concentration)
# Procedure, shortened: (§1)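 Plated 3 000 cells/well in complete RPMI1640 the day before dosing; controls were DMSO (negative) and EGFR TKIs (positive).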
# [2] = test system: HCC827 cells (EGFR Exon19 del, non-small cell lung cancer cells); test: Cell viability assay (WST/CCK8), HCC827 cells; type: cell-based; details: Homo sapiens, HCC827, 72 h, HCC827 (Exon19 Del), 72 hours, read-out: IC50 (half inhibitory concentration)
# Procedure, shortened: as §1
# [3] = Table 6, canertinib-based compounds, WST
SMILES,IC50 ([1]; WST (CCK8)),IC50 ([2]; WST (CCK8)),"IC50 [1, 3]","IC50 [2, 3]"
"COc1cc2ncnc(Nc3ccc(F)c(Cl)c3)c2cc1NC(=O)/C=C/CN1CCN(C(=O)CCCCNc2cccc3c2CN(C2CCC(=O)NC2=O)C3=O)CC1 (stereo not shown) [SIAIS249058, (E)-N-(4-((3-chloro-4-fluorophenyl)amino)-7-methoxyquinazolin-6-yl)-4-(4-(5-((2-(2,6-dioxopiperidin-3-yl)-1-oxoisoindolin-4-yl)amino)pentanoyl)piperazin-1-yl)but-2-enamide]",9.9 nM,5.5 nM,–,–
"COc1cc2ncnc(Nc3ccc(F)c(Cl)c3)c2cc1NC(=O)/C=C/CN1CCN(C(=O)CCCCCNc2cccc3c2CN(C2CCC(=O)NC2=O)C3=O)CC1 (stereo not shown) [SIAIS249059, (E)-N-(4-((3-chloro-4-fluorophenyl)amino)-7-methoxyquinazolin-6-yl)-4-(4-(6-((2-(2,6-dioxopiperidin-3-yl)-1-oxoisoindolin-4-yl)amino)hexanoyl)piperazin-1-yl)but-2-enamide]",1.2 nM,11.1 nM,–,–
"COc1cc2ncnc(Nc3ccc(F)c(Cl)c3)c2cc1NC(=O)/C=C/CN1CCN(C(=O)CCCCCCNc2cccc3c2CN(C2CCC(=O)NC2=O)C3=O)CC1 (stereo not shown) [SIAIS249060, (E)-N-(4-((3-chloro-4-fluorophenyl)amino)-7-methoxyquinazolin-6-yl)-4-(4-(7-((2-(2,6-dioxopiperidin-3-yl)-1-oxoisoindolin-4-yl)amino)heptanoyl)piperazin-1-yl)but-2-enamide]",16 nM,11.5 nM,–,–
"COc1cc2ncnc(Nc3ccc(F)c(Cl)c3)c2cc1NC(=O)/C=C/CN1CCN(C(=O)CCCNc2cccc3c2C(=O)N(C2CCC(=O)NC2=O)C3=O)CC1 (stereo not shown) [SIAIS249062, (E)-N-(4-((3-chloro-4-fluorophenyl)amino)-7-methoxyquinazolin-6-yl)-4-(4-(4-((2-(2,6-dioxopiperidin-3-yl)-1,3-dioxoisoindolin-4-yl)amino)butanoyl)piperazin-1-yl)but-2-enamide]",10 nM,3.7 nM,–,–
"COc1cc2ncnc(Nc3ccc(F)c(Cl)c3)c2cc1NC(=O)/C=C/CN1CCC(NC(=O)CCOCCOCCNc2cccc3c2C(=O)N(C2CCC(=O)NC2=O)C3=O)CC1 (stereo not shown) [SIAIS249086, (E)-N-(4-((3-chloro-4-fluorophenyl)amino)-7-methoxyquinazolin-6-yl)-4-(4-(3-(2-(2-((2-(2,6-dioxopiperidin-3-yl)-1,3-dioxoisoindolin-4-yl)amino)ethoxy)ethoxy)propanamido)piperidin-1-yl)but-2-enamide]",34.2 nM,17 nM,–,–
"C=CC(=O)Nc1cc2c(Nc3ccc(F)c(Cl)c3)ncnc2cc1OCCCN1CCN(C(=O)CCC(=O)NCCNc2cccc3c2C(=O)N(C2CCC(=O)NC2=O)C3=O)CC1 (stereo not shown) [SIAIS249100, 4-(4-(3-((6-acrylamido-4-((3-chloro-4-fluorophenyl)amino)quinazolin-7-yl)oxy)propyl)piperazin-1-yl)-N-(2-((2-(2,6-dioxopiperidin-3-yl)-1,3-dioxoisoindolin-4-yl)amino)ethyl)-4-oxobutanamide]",–,–,88.5 nM,41 nM
"C=CC(=O)Nc1cc2c(Nc3ccc(F)c(Cl)c3)ncnc2cc1OCCCN1CCN(C(=O)CCN2CCN(CCC(=O)N[C@H](C(=O)N3C[C@H](O)C[C@H]3C(=O)NCc3ccc(-c4scnc4C)cc3)C(C)(C)C)CC2)CC1 [SIAIS249101, (2S,4R)-1-((S)-2-(3-(4-(3-(4-(3-((6-acrylamido-4-((3-chloro-4-fluorophenyl)amino)quinazolin-7-yl)oxy)propyl)piperazin-1-yl)-3-oxopropyl)piperazin-1-yl)propanamido)-3,3-dimethylbutanoyl)-4-hydroxy-N-(4-(4-methylthiazol-5-yl)benzyl)pyrrolidine-2-carboxamide]",–,–,58.5 nM,70 nM
"COc1cc2ncnc(Nc3ccc(F)c(Cl)c3)c2cc1NC(=O)/C=C/CN1CCC(N2CCN(C(=O)CCC(=O)NCCOCCNc3cccc4c3C(=O)N(C3CCC(=O)NC3=O)C4=O)CC2)CC1 (stereo not shown) [SIAIS249103, (E)-N-(4-((3-chloro-4-fluorophenyl)amino)-7-methoxyquinazolin-6-yl)-4-(4-(4-(4-((2-(2-((2-(2,6-dioxopiperidin-3-yl)-1,3-dioxoisoindolin-4-yl)amino)ethoxy)ethyl)amino)-4-oxobutanoyl)piperazin-1-yl)piperidin-1-yl)but-2-enamide]",20.4 nM,12.8 nM,–,–
"COc1cc2ncnc(Nc3ccc(F)c(Cl)c3)c2cc1NC(=O)/C=C/CN1CCC(N2CCN(C(=O)CCC(=O)NCCNc3cccc4c3C(=O)N(C3CCC(=O)NC3=O)C4=O)CC2)CC1 (stereo not shown) [SIAIS249104, (E)-N-(4-((3-chloro-4-fluorophenyl)amino)-7-methoxyquinazolin-6-yl)-4-(4-(4-(4-((2-((2-(2,6-dioxopiperidin-3-yl)-1,3-dioxoisoindolin-4-yl)amino)ethyl)amino)-4-oxobutanoyl)piperazin-1-yl)piperidin-1-yl)but-2-enamide]",37.6 nM,18.2 nM,–,–
"COc1cc2ncnc(Nc3ccc(F)c(Cl)c3)c2cc1NC(=O)/C=C/CN1CCC(N2CCN(C(=O)CCN3CCN(CCC(=O)N[C@H](C(=O)N4C[C@H](O)C[C@H]4C(=O)NCc4ccc(-c5scnc5C)cc4)C(C)(C)C)CC3)CC2)CC1 [SIAIS249105, (2S,4R)-1-((S)-2-(3-(4-(3-(4-(1-((E)-4-((4-((3-chloro-4-fluorophenyl)amino)-7-methoxyquinazolin-6-yl)amino)-4-oxobut-2-en-1-yl)piperidin-4-yl)piperazin-1-yl)-3-oxopropyl)piperazin-1-yl)propanamido)-3,3-dimethylbutanoyl)-4-hydroxy-N-(4-(4-methylthiazol-5-yl)benzyl)pyrrolidine-2-carboxamide]",60.5 nM,54.3 nM,–,–
"COc1cc2ncnc(Nc3ccc(F)c(Cl)c3)c2cc1NC(=O)/C=C/CN1CCC(N2CCN(C(=O)CCc3ccc(CCC(=O)N[C@H](C(=O)N4C[C@H](O)C[C@H]4C(=O)NCc4ccc(-c5scnc5C)cc4)C(C)(C)C)cc3)CC2)CC1 [SIAIS249106, (2S,4R)-1-((S)-2-(3-(4-(3-(4-(1-((E)-4-((4-((3-chloro-4-fluorophenyl)amino)-7-methoxyquinazolin-6-yl)amino)-4-oxobut-2-en-1-yl)piperidin-4-yl)piperazin-1-yl)-3-oxopropyl)phenyl)propanamido)-3,3-dimethylbutanoyl)-4-hydroxy-N-(4-(4-methylthiazol-5-yl)benzyl)pyrrolidine-2-carboxamide]",50.1 nM,16.2 nM,–,–
"COc1cc2ncnc(Nc3ccc(F)c(Cl)c3)c2cc1NC(=O)/C=C/CN1CCN(C(=O)COCCOCCSc2cccc3c2CN(C2CCC(=O)NC2=O)C3=O)CC1 (stereo not shown) [SIAIS262001, (E)-N-(4-((3-chloro-4-fluorophenyl)amino)-7-methoxyquinazolin-6-yl)-4-(4-(2-(2-(2-((2-(2,6-dioxopiperidin-3-yl)-1-oxoisoindolin-4-yl)thio)ethoxy)ethoxy)acetyl)piperazin-1-yl)but-2-enamide]",53 nM,26.9 nM,–,–
"COc1cc2ncnc(Nc3ccc(F)c(Cl)c3)c2cc1NC(=O)/C=C/CN1CCN(C(=O)COCCOCCOCCSc2cccc3c2CN(C2CCC(=O)NC2=O)C3=O)CC1 (stereo not shown) [SIAIS262002, (E)-N-(4-((3-chloro-4-fluorophenyl)amino)-7-methoxyquinazolin-6-yl)-4-(4-(2-(2-(2-(2-((2-(2,6-dioxopiperidin-3-yl)-1-oxoisoindolin-4-yl)thio)ethoxy)ethoxy)ethoxy)acetyl)piperazin-1-yl)but-2-enamide]",78 nM,26.1 nM,–,–
"COc1cc2ncnc(Nc3ccc(F)c(Cl)c3)c2cc1NC(=O)/C=C/CN1CCN(C(=O)COCCOCCOCCOCCOCCSc2cccc3c2CN(C2CCC(=O)NC2=O)C3=O)CC1 (stereo not shown) [SIAIS262004, (E)-N-(4-((3-chloro-4-fluorophenyl)amino)-7-methoxyquinazolin-6-yl)-4-(4-(17-((2-(2,6-dioxopiperidin-3-yl)-1-oxoisoindolin-4-yl)thio)-3,6,9,12,15-pentaoxaheptadecan-1-oyl)piperazin-1-yl)but-2-enamide]",15 nM,7.2 nM,–,–
"COc1cc2ncnc(Nc3ccc(F)c(Cl)c3)c2cc1NC(=O)/C=C/CN1CCN(C(=O)COCCOCCSc2cccc3c2C(=O)N(C2CCC(=O)NC2=O)C3=O)CC1 (stereo not shown) [SIAIS262005, (E)-N-(4-((3-chloro-4-fluorophenyl)amino)-7-methoxyquinazolin-6-yl)-4-(4-(2-(2-(2-((2-(2,6-dioxopiperidin-3-yl)-1,3-dioxoisoindolin-4-yl)thio)ethoxy)ethoxy)acetyl)piperazin-1-yl)but-2-enamide]",84 nM,66.9 nM,–,–
"COc1cc2ncnc(Nc3ccc(F)c(Cl)c3)c2cc1NC(=O)/C=C/CN1CCN(C(=O)COCCOCCOCCSc2cccc3c2C(=O)N(C2CCC(=O)NC2=O)C3=O)CC1 (stereo not shown) [SIAIS262006, (E)-N-(4-((3-chloro-4-fluorophenyl)amino)-7-methoxyquinazolin-6-yl)-4-(4-(2-(2-(2-(2-((2-(2,6-dioxopiperidin-3-yl)-1,3-dioxoisoindolin-4-yl)thio)ethoxy)ethoxy)ethoxy)acetyl)piperazin-1-yl)but-2-enamide]",73 nM,35.5 nM,–,–
"COc1cc2ncnc(Nc3ccc(F)c(Cl)c3)c2cc1NC(=O)/C=C/CN1CCN(C(=O)COCCOCCOCCOCCSc2cccc3c2C(=O)N(C2CCC(=O)NC2=O)C3=O)CC1 (stereo not shown) [SIAIS262007, (E)-N-(4-((3-chloro-4-fluorophenyl)amino)-7-methoxyquinazolin-6-yl)-4-(4-(14-((2-(2,6-dioxopiperidin-3-yl)-1,3-dioxoisoindolin-4-yl)thio)-3,6,9,12-tetraoxatetradecanoyl)piperazin-1-yl)but-2-enamide]",84 nM,26 nM,–,–
